{"source": "ChEMBL document CHEMBL1150146", "about": "“New terpenoids from the brown alga Stypopodium zonale” (J Nat Prod, 2002)", "assay_type_in_all_cases": "functional, cell-based", "key": {"HT-29": {"test_system": "HT-29", "test": "Cytotoxicity against human HT-29 cells"}, "A549": {"test_system": "A549", "test": "Cytotoxicity against human A549 cells"}, "[1]": {"test": "Cytotoxicity against human H116 cells"}}}
{"molecule": "COC(=O)CC[C@@H]1C(=C(C)C)CC[C@H]2[C@@]1(C)CC[C@H](C)[C@]2(C)Cc1cc(O)cc(C)c1O", "values": [{"measurement": "IC50", "setting": "HT-29", "value": "< 2.5", "unit": "µg/mL"}, {"measurement": "IC50", "setting": "A549", "value": 2.5, "unit": "µg/mL"}, {"measurement": "IC50", "setting": "[1]", "value": 2.5, "unit": "µg/mL"}]}
